Reference: ChEMBL document CHEMBL1201862, “PubChem BioAssay data set” (2004)
Calls of active or inactive are those of the source.

Experiments:
[1] = molecular target: T1, Low molecular weight phosphotyrosine protein phosphatase (Homo sapiens, UniProt P24666); format: functional; settings: read-out: IC50_Mean;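 note: Dose-response confirmation assay measuring inhibition of LMPTP enzyme activity by fluorescence intensity read-out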
T1 sequence (P24666 whole entry): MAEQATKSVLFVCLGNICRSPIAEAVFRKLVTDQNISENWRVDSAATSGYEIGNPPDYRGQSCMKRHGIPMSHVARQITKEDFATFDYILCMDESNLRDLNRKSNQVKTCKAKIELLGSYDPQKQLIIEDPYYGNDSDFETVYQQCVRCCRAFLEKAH

[2] = molecular target: T1, Low molecular weight phosphotyrosine protein phosphatase; experiment: LMPTP phosphatase inhibitors, dose response, biochemical, OMFP substrate, fluorescence intensity, set 2 (AID 743307); format: functional
[3] = molecular target: T1, Low molecular weight phosphotyrosine protein phosphatase; experiment: LMPTP phosphatase inhibitors, colorimetric pNPP readout, dose response, orthogonal assay, biochemical, absorbance, pNPP substrate, LMPTP-A isoform, set 2 (AID 743308); format: functional
[4] = P. falciparum Dd2 growth inhibitors, dose response, SYBR Green, dry powder samples, set 9 (AID 1159568); format: functional, cell-based
[5] = Late-stage results from the probe development effort to identify antagonists of arginine vasopressin receptor 1a (AVPR1a): fluorescence-based cell-based dose response AVPR1a inhibition assay.; format: functional
Vasopressin V1b receptor = Vasopressin V1b receptor (Homo sapiens, UniProt P47901); experiment: Late-stage results from the probe development effort to identify antagonists of arginine vasopressin receptor 1a (AVPR1a): fluorescence-based cell-based dose response AVPR1b inhibition counterscreen assay.; format: functional
Vasopressin V1b receptor, sequence (P47901 whole entry): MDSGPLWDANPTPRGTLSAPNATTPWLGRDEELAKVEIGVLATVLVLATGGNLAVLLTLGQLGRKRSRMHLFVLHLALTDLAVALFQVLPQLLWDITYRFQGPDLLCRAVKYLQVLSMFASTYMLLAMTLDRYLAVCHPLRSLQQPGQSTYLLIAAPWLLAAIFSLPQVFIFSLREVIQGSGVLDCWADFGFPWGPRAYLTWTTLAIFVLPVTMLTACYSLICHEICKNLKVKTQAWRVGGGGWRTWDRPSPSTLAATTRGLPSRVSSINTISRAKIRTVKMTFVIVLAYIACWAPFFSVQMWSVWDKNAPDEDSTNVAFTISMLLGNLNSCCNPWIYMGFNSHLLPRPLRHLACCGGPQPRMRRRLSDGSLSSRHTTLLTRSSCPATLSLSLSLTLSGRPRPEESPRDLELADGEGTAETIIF

Vasopressin V2 receptor = Vasopressin V2 receptor (Homo sapiens, UniProt P30518); experiment: Late-stage results from the probe development effort to identify antagonists of arginine vasopressin receptor 1a (AVPR1a): fluorescence-based cell-based dose response AVPR2 inhibition counterscreen assay.; format: functional
Vasopressin V2 receptor, sequence (P30518 whole entry): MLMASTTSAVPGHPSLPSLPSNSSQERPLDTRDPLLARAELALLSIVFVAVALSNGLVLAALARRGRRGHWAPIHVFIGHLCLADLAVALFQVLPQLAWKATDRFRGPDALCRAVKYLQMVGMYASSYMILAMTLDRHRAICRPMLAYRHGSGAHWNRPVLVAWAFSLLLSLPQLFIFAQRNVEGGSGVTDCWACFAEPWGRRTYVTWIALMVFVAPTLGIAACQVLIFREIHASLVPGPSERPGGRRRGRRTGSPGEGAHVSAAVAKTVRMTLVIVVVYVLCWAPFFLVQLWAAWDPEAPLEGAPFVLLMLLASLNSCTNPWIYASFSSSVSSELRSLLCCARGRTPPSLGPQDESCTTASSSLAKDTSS

[6] = Late-stage results from the probe development effort to identify antagonists of arginine vasopressin receptor 1a (AVPR1a): fluorescence-based cell-based dose response OXTR inhibition counterscreen assay.; format: functional
[7] = NIH-3T3 fibroblast cytotoxicity, dose response, cytotoxicity control, cell-based, fluorescence, Alamar Blue, secondary assay (AID 2327); format: functional;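 note: NIH-3T3 mouse fibroblasts cultured with fluconazole at 8 µg/mL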
Leucine aminopeptidase = molecular target: T2, Leucine aminopeptidase (Plasmodium falciparum 3D7, UniProt Q8IL11); experiment: P. falciparum M17LAP inhibitors, primary screen, biochemical, fluorogenic H-Leu-NHMec substrate, 1536-well (AID 1619); format: functional
T2 sequence (Q8IL11 whole entry): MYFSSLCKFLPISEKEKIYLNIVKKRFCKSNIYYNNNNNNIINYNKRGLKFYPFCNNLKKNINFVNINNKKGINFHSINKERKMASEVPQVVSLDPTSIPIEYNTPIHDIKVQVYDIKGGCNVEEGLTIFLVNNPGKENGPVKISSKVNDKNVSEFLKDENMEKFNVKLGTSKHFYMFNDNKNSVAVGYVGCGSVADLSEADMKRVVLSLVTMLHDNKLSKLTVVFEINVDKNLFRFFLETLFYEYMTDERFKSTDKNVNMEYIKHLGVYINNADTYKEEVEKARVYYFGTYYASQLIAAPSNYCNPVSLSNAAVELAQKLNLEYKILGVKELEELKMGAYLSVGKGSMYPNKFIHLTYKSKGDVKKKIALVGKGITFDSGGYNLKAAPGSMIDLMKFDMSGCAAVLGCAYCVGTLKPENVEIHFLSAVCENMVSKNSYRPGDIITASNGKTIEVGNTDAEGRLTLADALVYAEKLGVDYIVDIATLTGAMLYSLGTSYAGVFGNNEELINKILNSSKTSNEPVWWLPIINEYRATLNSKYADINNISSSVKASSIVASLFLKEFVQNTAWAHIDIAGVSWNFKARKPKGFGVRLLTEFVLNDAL

[8] = C. albicans growth with fluconazole, confirmation, fluorescence, retest (AID 2467); format: functional, cell-based
[9] = molecular target: T3, Mannose-6-phosphate isomerase (Homo sapiens, UniProt P34949); experiment: human PMI inhibitors, high substrate, primary screen, biochemical, fluorescence intensity, high mannose 6-phosphate (AID 1220)
T3 sequence (P34949 whole entry): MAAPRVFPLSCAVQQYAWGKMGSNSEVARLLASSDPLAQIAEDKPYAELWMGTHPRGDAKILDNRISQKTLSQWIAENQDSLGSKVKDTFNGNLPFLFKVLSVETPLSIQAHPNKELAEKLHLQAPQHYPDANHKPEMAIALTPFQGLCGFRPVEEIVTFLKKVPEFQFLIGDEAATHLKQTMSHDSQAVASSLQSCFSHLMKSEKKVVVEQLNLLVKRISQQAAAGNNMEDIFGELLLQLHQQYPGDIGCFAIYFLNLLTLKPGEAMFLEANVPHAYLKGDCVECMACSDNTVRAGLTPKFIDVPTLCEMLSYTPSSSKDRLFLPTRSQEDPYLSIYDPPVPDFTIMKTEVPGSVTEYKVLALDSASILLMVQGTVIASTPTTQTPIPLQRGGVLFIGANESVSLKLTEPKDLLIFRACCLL

[10] = molecular target: Glucose-6-phosphate 1-dehydrogenase (Homo sapiens, UniProt P11413); experiment: human G6PD enzyme inhibitors, dose response, selectivity assay for P. falciparum G6PD inhibitor project, biochemical, fluorescence (AID 504792); format: functional
Glucose-6-phosphate 1-dehydrogenase, sequence (P11413 whole entry): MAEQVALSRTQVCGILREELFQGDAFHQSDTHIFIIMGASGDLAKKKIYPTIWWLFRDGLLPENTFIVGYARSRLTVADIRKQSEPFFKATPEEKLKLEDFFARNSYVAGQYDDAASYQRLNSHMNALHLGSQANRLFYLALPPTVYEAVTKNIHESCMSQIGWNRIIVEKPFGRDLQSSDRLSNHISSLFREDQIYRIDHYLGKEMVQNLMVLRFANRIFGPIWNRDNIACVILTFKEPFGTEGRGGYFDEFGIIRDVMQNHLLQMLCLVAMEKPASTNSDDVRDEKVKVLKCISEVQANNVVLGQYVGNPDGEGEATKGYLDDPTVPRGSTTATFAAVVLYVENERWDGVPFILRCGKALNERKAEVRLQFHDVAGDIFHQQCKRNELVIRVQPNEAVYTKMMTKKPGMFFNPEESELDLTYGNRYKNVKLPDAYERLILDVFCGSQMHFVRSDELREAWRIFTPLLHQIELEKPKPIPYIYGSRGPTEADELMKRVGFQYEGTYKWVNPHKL

Vero = Vero cell cytotoxicity, cytotoxicity control for flavivirus capping enzyme inhibitors (AID 588742); format: functional; settings: Chlorocebus sabaeus
Genome polyprotein = Genome polyprotein (dengue virus type 2, UniProt P29990); experiment: Dengue-2 NS5 methyltransferase inhibitors, primary screen, biochemical, confirmation dose response (AID 588689); format: functional
Genome polyprotein, sequence (P29990 2492-3391 limits assumed): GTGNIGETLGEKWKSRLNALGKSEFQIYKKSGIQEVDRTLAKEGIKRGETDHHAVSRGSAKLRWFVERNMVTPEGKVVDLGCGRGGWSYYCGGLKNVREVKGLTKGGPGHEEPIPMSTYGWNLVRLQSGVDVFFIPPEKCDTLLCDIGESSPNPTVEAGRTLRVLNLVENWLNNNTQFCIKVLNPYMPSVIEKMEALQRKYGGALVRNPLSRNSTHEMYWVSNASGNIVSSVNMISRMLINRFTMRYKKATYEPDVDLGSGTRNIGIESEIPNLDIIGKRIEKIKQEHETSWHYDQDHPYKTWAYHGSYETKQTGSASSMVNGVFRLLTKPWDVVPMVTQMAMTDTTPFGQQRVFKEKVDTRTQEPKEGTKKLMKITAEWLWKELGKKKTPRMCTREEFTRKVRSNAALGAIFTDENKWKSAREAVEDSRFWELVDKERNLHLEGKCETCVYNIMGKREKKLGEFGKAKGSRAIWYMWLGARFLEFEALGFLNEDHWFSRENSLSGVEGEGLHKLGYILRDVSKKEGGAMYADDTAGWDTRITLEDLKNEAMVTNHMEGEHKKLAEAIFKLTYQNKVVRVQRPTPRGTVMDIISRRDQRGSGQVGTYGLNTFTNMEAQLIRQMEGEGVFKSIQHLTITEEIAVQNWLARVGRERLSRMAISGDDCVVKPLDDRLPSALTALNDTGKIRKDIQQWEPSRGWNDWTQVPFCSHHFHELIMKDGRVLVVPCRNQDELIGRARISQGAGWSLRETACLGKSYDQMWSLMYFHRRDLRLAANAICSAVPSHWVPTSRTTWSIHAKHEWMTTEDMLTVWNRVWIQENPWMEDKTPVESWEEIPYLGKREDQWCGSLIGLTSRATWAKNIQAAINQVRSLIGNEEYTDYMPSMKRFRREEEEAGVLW

Protein Tat = molecular target: T4, Protein Tat (Human immunodeficiency virus type 1 group M subtype B (isolate HXB2)(HIV-1), UniProt P04608); format: functional;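 note: tat binding to TAR RNA read out by fluorescence polarization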
T4 sequence (P04608 whole entry): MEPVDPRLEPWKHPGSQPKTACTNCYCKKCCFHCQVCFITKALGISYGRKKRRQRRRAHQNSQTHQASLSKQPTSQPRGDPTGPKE

[11] = THP-1 cell cytotoxicity, dose response, cytotoxicity control for Vif-APOBEC3G degradation inhibitor project, THP-1 cells (AID 1117359); format: functional; settings: Human immunodeficiency virus 1, THP-1
[12] = molecular target: RNA-editing ligase 1, mitochondrial (Trypanosoma brucei brucei, UniProt P86926); experiment: TbREL1 ligase inhibitors, dose response, biochemical, fluorescence, Trypanosoma brucei (AID 1117295); format: functional
RNA-editing ligase 1, mitochondrial, sequence (P86926 whole entry): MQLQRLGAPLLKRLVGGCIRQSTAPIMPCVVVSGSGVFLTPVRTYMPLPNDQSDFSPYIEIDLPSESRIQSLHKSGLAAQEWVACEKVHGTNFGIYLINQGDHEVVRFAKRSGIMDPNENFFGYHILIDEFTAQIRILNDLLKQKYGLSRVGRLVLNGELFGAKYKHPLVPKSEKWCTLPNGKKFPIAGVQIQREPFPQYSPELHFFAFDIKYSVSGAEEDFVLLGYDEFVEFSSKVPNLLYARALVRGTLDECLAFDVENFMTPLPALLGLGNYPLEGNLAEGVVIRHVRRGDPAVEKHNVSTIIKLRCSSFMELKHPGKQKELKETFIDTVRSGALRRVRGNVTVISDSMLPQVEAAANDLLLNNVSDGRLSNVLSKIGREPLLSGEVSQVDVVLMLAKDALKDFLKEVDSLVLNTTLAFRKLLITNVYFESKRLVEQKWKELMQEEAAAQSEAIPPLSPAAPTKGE

[13] = inhibitors of non-replicating M. tuberculosis, dose response, luciferase, dry powder (AID 651619); format: functional; settings: Mycobacterium tuberculosis
[14] = inhibitors of non-replicating M. tuberculosis, dose response, luciferase, dry powder (AID 651620); format: functional; settings: Mycobacterium tuberculosis
[15] = molecular target: T5, Methionyl-tRNA synthetase, putative (Trypanosoma brucei brucei, UniProt Q38C91); format: functional, Trypanosoma brucei brucei strain 927/4 GUTat10.1
T5 sequence (Q38C91 whole entry): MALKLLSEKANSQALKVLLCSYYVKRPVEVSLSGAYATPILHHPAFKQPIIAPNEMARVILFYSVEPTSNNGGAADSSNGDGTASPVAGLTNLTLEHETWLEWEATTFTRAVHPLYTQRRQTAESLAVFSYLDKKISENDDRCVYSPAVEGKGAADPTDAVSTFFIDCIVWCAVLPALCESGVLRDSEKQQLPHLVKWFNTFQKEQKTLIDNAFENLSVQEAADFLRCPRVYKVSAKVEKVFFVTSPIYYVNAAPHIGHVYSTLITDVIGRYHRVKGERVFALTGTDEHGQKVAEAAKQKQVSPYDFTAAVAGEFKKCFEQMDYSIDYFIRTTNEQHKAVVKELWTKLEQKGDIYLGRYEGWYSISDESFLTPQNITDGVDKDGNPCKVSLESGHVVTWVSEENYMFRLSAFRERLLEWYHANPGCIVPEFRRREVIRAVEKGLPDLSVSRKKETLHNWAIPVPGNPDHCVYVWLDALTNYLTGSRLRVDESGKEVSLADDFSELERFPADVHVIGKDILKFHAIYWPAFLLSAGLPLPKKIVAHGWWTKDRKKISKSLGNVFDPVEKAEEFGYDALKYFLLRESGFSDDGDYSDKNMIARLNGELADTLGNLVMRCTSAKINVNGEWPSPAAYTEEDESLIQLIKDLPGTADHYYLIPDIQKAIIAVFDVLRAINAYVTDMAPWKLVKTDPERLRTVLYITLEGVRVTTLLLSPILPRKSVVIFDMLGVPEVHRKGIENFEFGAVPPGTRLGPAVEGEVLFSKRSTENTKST

[16] = Counterscreen for inhibitors of Trypanosoma brucei methionyl tRNA synthetase (MetRS): Luminescence-based cell-based high throughput dose response assay to identify compounds that are cytotoxic to Jurkat human T lymphocyte cells.; format: functional
[17] = molecular target: T5, Methionyl-tRNA synthetase, putative; format: functional, Trypanosoma brucei brucei strain 927/4 GUTat10.1; remark: listed apart in the source
[18] = Late stage counterscreen for inhibitors of Trypanosoma brucei methionyl tRNA synthetase (MetRS): Luminescence-based cell-based high throughput dose response assay to identify compounds that are cytotoxic to Jurkat human T lymphocyte cells.; format: functional
[19] = miR-122 activators in hepatoma reporter cells, dose response, cell-based, Huh7 psiCHECK-miR122, Renilla luciferase, cherry-picked (AID 651956); format: functional;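 note: huh7 hepatoma cells stably carrying a psiCHECK-2 miR-122 sensor plasmid; renilla luciferase signal reporting endogenous miR-122 activity after 48 h compound exposure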
[20] = inhibitors of PGC1a acetylation in cells, dose response, cell-based, cherry-picked samples (AID 720514); format: functional;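 note: potency may reflect raised or lowered acetylation signal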
[21] = HEK293T cytotoxicity, dose response, cytotoxicity control for miR-122 modulator project, cell-based, inhibitor set, cherry-pick, set 2 (AID 720697); format: functional
[22] = HEK293T cytotoxicity, dose response, cytotoxicity control for miR-122 modulator project, cell-based, activator set, cherry-pick (AID 720690); format: functional;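 note: HEK293T human cells scored for general mammalian cytotoxicity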
[23] = molecular target: Glutathione-S-transferase (Schistosoma japonicum, UniProt Q26513); experiment: biotin-GST/anti-GST TR-FRET signal inhibitors, dose response, artefact control for Vif-APOBEC3G degradation inhibitor project, biochemical (AID 1117362); format: functional
Glutathione-S-transferase, sequence (Q26513 whole entry, the tested form may be a part): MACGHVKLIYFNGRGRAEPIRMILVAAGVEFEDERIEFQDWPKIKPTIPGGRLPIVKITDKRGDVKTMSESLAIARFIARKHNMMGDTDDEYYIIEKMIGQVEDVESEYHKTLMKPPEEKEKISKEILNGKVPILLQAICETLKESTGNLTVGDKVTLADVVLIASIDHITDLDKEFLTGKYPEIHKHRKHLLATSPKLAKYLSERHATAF

[24] = HIV Env cell-cell fusion inhibitors, dose response, HIV entry, plate reader, dry powder (AID 687023); format: functional, cell-based
[25] = luciferase signal loss, tTA control fusion, HeLa F-luc tTA cells, dry powder, counter-screen for HIV Env fusion inhibitor project, dose response (AID 687021); format: functional, cell-based
[26] = CEM21 cell cytotoxicity, dose response, cytotoxicity control, plate reader, dry powder (AID 687026); format: functional, cell-based
[27] = A375 melanoma cell viability loss, dose response, counter-screen for MITF inhibitor project, CellTiter-Glo luminescence, dry powder, set 4 (AID 624364); format: functional, cell-based; settings: A-375;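 note: A375 melanoma cells are MITF independent so this is a counter screen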
[28] = A375 melanoma cell cytotoxicity, dose response, counter-screen for MITF inhibitor project, CellTiter-Glo luminescence, dry powder, set 2 (AID 624489); format: functional, cell-based; settings: A-375;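 note: actives are compounds lowering A375 viability meaning general cytotoxicity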
[29] = inhibitors of Vif binding to APOBEC3G peptide, primary screen, biochemical, TR-FRET, GST-Vif 1-94, biotin-A3G peptide, dose response retest (AID 1117319); format: functional;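 note: TR-FRET signal of purified GST-Vif binding a biotinylated A3G peptide; inhibitors lower the FRET signal by blocking Vif and A3G binding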
[30] = molecular target: Metabotropic glutamate receptor 7 (Homo sapiens, UniProt Q14831); experiment: mGlu7 positive allosteric modulators, dose response, cell-based, calcium mobilization, Galpha15 (AID 743384); format: functional
Metabotropic glutamate receptor 7, sequence (Q14831 whole entry): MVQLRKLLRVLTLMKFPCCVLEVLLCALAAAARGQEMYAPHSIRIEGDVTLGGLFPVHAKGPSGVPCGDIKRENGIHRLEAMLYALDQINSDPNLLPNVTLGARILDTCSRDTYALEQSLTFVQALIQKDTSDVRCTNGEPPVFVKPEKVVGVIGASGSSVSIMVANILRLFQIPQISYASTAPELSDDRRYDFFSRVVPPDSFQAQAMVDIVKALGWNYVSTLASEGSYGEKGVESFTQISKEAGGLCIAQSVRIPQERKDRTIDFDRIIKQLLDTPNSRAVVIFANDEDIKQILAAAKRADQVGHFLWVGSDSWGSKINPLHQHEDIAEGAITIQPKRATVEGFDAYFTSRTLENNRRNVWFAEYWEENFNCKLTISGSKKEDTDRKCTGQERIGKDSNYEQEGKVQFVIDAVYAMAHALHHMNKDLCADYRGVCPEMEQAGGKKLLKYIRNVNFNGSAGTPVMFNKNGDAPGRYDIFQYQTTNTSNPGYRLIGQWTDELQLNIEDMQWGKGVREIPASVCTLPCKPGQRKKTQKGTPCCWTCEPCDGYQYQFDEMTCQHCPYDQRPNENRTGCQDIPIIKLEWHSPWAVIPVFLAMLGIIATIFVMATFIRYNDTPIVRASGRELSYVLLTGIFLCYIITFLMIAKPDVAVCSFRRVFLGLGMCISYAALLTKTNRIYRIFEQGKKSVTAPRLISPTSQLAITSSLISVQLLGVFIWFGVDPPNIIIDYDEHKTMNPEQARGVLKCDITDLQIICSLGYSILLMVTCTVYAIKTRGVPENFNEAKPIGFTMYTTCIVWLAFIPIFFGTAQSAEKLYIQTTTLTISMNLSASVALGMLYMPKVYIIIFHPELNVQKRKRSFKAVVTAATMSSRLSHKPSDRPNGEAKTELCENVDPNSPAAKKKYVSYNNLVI

SMILES: c1ccc(-c2nc(NC3CCCC3)c3ccccc3n2)cc1
- IC50 [1]: 10 µM (active)
- IC50 [2]: 21.1 µM (inactive)
- IC50 [3]: > 80 µM (inactive)

SMILES: C[C@@H]1CN([C@H](C)CO)C(=O)c2cc(N(C)C)ccc2O[C@@H](C)CCCCO[C@@H]1CN(C)S(=O)(=O)c1ccc(F)cc1
- AC50 [4]: 12.1 µM (active)

SMILES: COc1ccccc1N(CC1CC1)C(=O)N1CCN(c2ccccc2C)CC1
- IC50 [5]: 292 nM (active)
- IC50 (Vasopressin V1b receptor): 17.9 µM (inactive)
- IC50 (Vasopressin V2 receptor): 12.3 µM (inactive)
- IC50 [6]: 12.3 µM (inactive)

SMILES: CC/N=c1\scc(C)n1/N=C/c1ccc(O)c(O)c1O
- EC50 [7]: > 150 µM (inactive)
- IC50 (Leucine aminopeptidase): 82.3 µM (active)
- EC50 [8]: > 38 µM (not active)
- IC50 [9]: 12 µM (active)
- IC50 [10]: 57.4 µM (inactive)
- CC50 (Vero): > 40 µM (active)
- IC50 (Genome polyprotein): 21.4 µM (active)
- IC50 (Protein Tat): 54.4 µM (inconclusive)
- CC50 [11]: 29.6 µM (active)
- IC50 [12]: > 96.6 µM (inactive)

SMILES: c1ccc(-c2nnc(SCC3CC3)o2)cc1
- IC90 [13]: 2 µM (active)
- IC90 [14]: 2 µM (active)

SMILES: O=C1CC(SCc2nc3ccccc3[nH]2)C(=O)N1c1cccc(Cl)c1 (stereo unspecified)
- IC50 [15]: 3.81 µM (active)
- IC50 [16]: 65 µM (inactive)
- IC50 [17]: 2.6 µM (active)
- IC50 [18]: > 83.3 µM (inactive)

SMILES: COc1ccc(C#Cc2ccc([C@@H]3[C@H](CO)N4CCCCN(C(=O)Nc5ccccc5)C[C@@H]34)cc2)cc1
- AC50 [19]: 7.42 µM (active)
- AC50 [20]: 9.62 µM (active)
- AC50 [21]: 405 nM (active)
- AC50 [22]: 7.77 µM (active)

SMILES: CCOC(=O)C1CCCC12Nc1cccc3cccc(c13)N2 (stereo unspecified)
- IC50 [23]: > 100 µM (active)

SMILES: COC(=O)COc1ccc(S(=O)(=O)NCc2ccncc2)cc1
- AC50 [24]: 20.7 µM (active)
- AC50 [25]: > 70 µM (inactive)
- AC50 [26]: > 70 µM (inactive)

SMILES: COc1ccc(C2=C(NC(=O)c3cccc(Cl)c3)C(=O)c3ccccc3C2=O)cc1
- AC50 [27]: 24.1 µM (active)
- AC50 [28]: 18.2 µM (active)

SMILES: Cc1ccc(C(=O)N2CCN(c3ccccc3)CC2)cc1C
- IC50 [29]: > 100 µM (active)

SMILES: Cc1ccc(CSCC(=O)c2cc(C)n(-c3ccc(OC(F)F)cc3)c2C)cc1
- EC50 [30]: 3.16 µM (active)
